The supplement of paper PMC10307832

Key:
Test in all cases: relative viability (nuclei count vs DMSO), 5 days (fraction); higher = more cells survive
Avagacestat = compound: NC(=O)[C@@H](CCC(F)(F)F)N(Cc1ccc(-c2ncon2)cc1F)S(=O)(=O)c1ccc(Cl)cc1 [Avagacestat]
Procedure, shortened: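 Lung cancer cell lines in 1536-well plates were exposed by pinning to five library-drug doses (not always all listed) √10 apart, following an overnight hold at 37 °C. MetaXpress counted Hoechst-stained nuclei from 4× images taken after 5 days without medium change. Viability is the median ratio of treated-well to vehicle-well nuclei across plates. Plates required control CV below 25% and at least one doubling.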

[1] = compound: NC(=O)[C@@H](CCC(F)(F)F)N(Cc1ccc(-c2ncon2)cc1F)S(=O)(=O)c1ccc(Cl)cc1 [Avagacestat] + CC(=O)c1c(C)c2cnc(Nc3ccc(N4CCNCC4)cn3)nc2n(C2CCCC2)c1=O [Palbociclib] (partner 0.5 µM)
Procedure, shortened: (§1)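 The day after seeding in 1536-well plates, lung cancer cell lines were treated by pin tool with a single drug, or with a fixed anchor-drug dose together with five library-drug doses (not always all listed) in √10 steps. After 5 days, a combined fix-and-stain solution (final 0.05% Triton X-100, 1% formaldehyde, 1 ug/ml Hoechst) was added. Nuclei counted on 4× images gave relative viability as treated counts over vehicle counts, reported as the median of duplicate plates.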

Avagacestat + Foretinib = compound: NC(=O)[C@@H](CCC(F)(F)F)N(Cc1ccc(-c2ncon2)cc1F)S(=O)(=O)c1ccc(Cl)cc1 [Avagacestat] + COc1cc2c(Oc3ccc(NC(=O)C4(C(=O)Nc5ccc(F)cc5)CC4)cc3F)ccnc2cc1OCCCN1CCOCC1 [Foretinib] (partner 0.25 µM)
Procedure, shortened: as §1

Avagacestat + OSI-027 = compound: NC(=O)[C@@H](CCC(F)(F)F)N(Cc1ccc(-c2ncon2)cc1F)S(=O)(=O)c1ccc(Cl)cc1 [Avagacestat] + COc1cccc2cc(-c3nc([C@H]4CC[C@H](C(=O)O)CC4)n4ncnc(N)c34)[nH]c12 [OSI-027] (partner 0.5 µM)
Procedure, shortened: as §1

Cell Line | relative viability (Avagacestat; 0.08 µM) | relative viability (Avagacestat; 0.253 µM) | relative viability (Avagacestat; 0.8 µM) | relative viability (Avagacestat; 2.53 µM) | relative viability (Avagacestat; 8 µM) | relative viability ([1]; first compound 0.08 µM) | relative viability ([1]; first compound 0.253 µM) | relative viability ([1]; first compound 0.8 µM) | relative viability ([1]; first compound 2.53 µM) | relative viability ([1]; first compound 8 µM) | relative viability (Avagacestat + Foretinib; first compound 0.08 µM) | relative viability (Avagacestat + Foretinib; first compound 0.253 µM) | relative viability (Avagacestat + Foretinib; first compound 0.8 µM) | relative viability (Avagacestat + Foretinib; first compound 2.53 µM) | relative viability (Avagacestat + Foretinib; first compound 8 µM) | relative viability (Avagacestat + OSI-027; first compound 0.08 µM) | relative viability (Avagacestat + OSI-027; first compound 0.253 µM) | relative viability (Avagacestat + OSI-027; first compound 0.8 µM) | relative viability (Avagacestat + OSI-027; first compound 2.53 µM) | relative viability (Avagacestat + OSI-027; first compound 8 µM)
NCI-H2347 | 1.1 | 1.07 | 1.13 | 1.03 | 0.97 | 0.398 | 0.481 | 0.409 | 0.445 | 0.462 | 1.22 | 1.07 | 0.931 | 0.842 | 0.977 | 0.506 | 0.352 | 0.398 | 0.366 | 0.369
NCI-H2405 | 1.01 | 0.99 | 1.08 | 0.956 | 0.97 | 0.512 | 0.532 | 0.478 | 0.448 | 0.489 | 1.04 | 1.03 | 0.998 | 0.938 | 0.927 | 0.628 | 0.638 | 0.603 | 0.571 | 0.516
NCI-H3122 | 1.07 | 1.08 | 1.05 | 0.995 | 0.927 | 0.198 | 0.191 | 0.248 | 0.221 | 0.182 | 0.945 | 1 | 0.992 | 0.964 | 0.991 | 1.09 | 1.24 | 1.21 | – | 1.07
PC-3 [JPC-3] | 1.2 | 1.08 | 1.25 | 1.05 | 1.02 | 0.544 | 0.574 | 0.66 | 0.562 | 0.6 | 1.19 | 1.09 | 1.15 | 1.02 | 1.01 | 0.912 | 0.799 | 0.908 | 0.697 | 0.735
PC-14 | 1.32 | 1.18 | 1.35 | 1.02 | 0.922 | 0.645 | 0.618 | 0.687 | 0.461 | 0.524 | 1.1 | 1.08 | 1.1 | 0.956 | 0.817 | 1.19 | 0.888 | 0.749 | 0.599 | 0.74
RERF-LC-KJ | 1.07 | 1.1 | 1.04 | 0.945 | 0.856 | 1.16 | 1.23 | 1.2 | 1.09 | 1.14 | 0.987 | 1.07 | 0.993 | 0.859 | 0.842 | 0.57 | 0.65 | 0.695 | 0.54 | 0.547
SK-LU-1 | 1.21 | 1.03 | 1.02 | 0.83 | 0.908 | 0.377 | 0.372 | 0.327 | 0.338 | 0.345 | 0.993 | 0.879 | 0.852 | 0.575 | 0.66 | 0.379 | 0.307 | 0.297 | 0.29 | 0.248
SK-MES-1 | 1.14 | 1.08 | 1.06 | 0.92 | 0.889 | 0.318 | 0.342 | 0.329 | 0.307 | 0.32 | 0.92 | 0.808 | 1.03 | 0.666 | 0.619 | 0.601 | 0.675 | 0.728 | 0.473 | 0.448
SW 1573 | 1.14 | 1.14 | 1.06 | 0.972 | 0.895 | 0.512 | 0.422 | 0.475 | 0.337 | 0.357 | 0.917 | 0.866 | 0.88 | 0.867 | 1.02 | 0.8 | 0.654 | 0.806 | 0.61 | 0.446
UMC-11 | 1.04 | 1.07 | 1.1 | 1.02 | 1.06 | 0.325 | 0.312 | 0.323 | 0.315 | 0.34 | 1.19 | 1.15 | 1.26 | 1.13 | 1.06 | 0.52 | 0.454 | 0.503 | 0.461 | 0.465
